Experimental data: patent US9115148B2, “Spirocyclic derivatives as histone deacetylase inhibitors” (DAC S.R.L., priority 2008, dated 2015)

Tests used:
[1] = system: HDAC (nuclear fraction of Hela cells); experiment: Assay of enzyme inhibition of HDAC (BIOMOL Kit); assay type: biochemical; conditions: substrate 200 μM, 15 min at RT
Procedure, shortened: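 Enzyme source was HeLa nuclear fraction, incubated 15 min at RT with compound and an acetyl-lysine substrate at 200 μM. IC50 values were derived from concentration-response data.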

K562 cells = experiment: Cell growth, CellTiter-Glo Luminescent Cell Viability Assay, K562; assay type: cell-based; conditions: Homo sapiens, 72 h incubation, read-out: IC50 antiproliferative assay K562
Procedure, shortened: (§1)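 Exponentially growing cells exposed 72 h to a range of inhibitor concentrations. Viability measured as cellular ATP by CellTiter-Glo luminescence (2 min lysis, read after 10 min RT); IC50 calculated and binned into ranges (≤1.0, 1.0–3.0, ≥3.0 μM).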

A549 cells = experiment: Cell growth, CellTiter-Glo Luminescent Cell Viability Assay, A549; assay type: cell-based; conditions: Homo sapiens, 72 h incubation, read-out: IC50 antiproliferative assay A549
Procedure, shortened: as §1

HCT-116 cells = experiment: Cell growth, CellTiter-Glo Luminescent Cell Viability Assay, HCT-116; assay type: cell-based; conditions: Homo sapiens, HCT116 cells, 72 h incubation, read-out: IC50 antiproliferative assay HCT116
Procedure, shortened: as §1

Row | SMILES | IC50 [1] [µM] | IC50 (K562 cells) [µM] | IC50 (A549 cells) [µM] | IC50 (HCT-116 cells) [µM]
1 | CN1C(=O)c2cc(/C=C/C(=O)NO)ccc2OC12CCN(CCc1ccccc1)CC2 [Example 77, (E)-3-{1′-(2-Phenyl-ethyl)-3,4-dihydro-3-methyl-4-oxo-spiro[2H-(1,3)-benzoxazine-2,4′-piperidin]-6-yl}-N-hydroxy-acrylamide] | 0.1 to 1 | ≤ 1 | 1 to 3 | 1 to 3
2 | CN1CCC2(CC1)Oc1ccc(/C=C/C(=O)NO)cc1C(=O)N2C [Example 78, (E)-3-{1′-Methyl-3,4-dihydro-3-methyl-4-oxo-spiro[2H-(1,3)-benzoxazine-2,4′-piperidin]-6-yl}-N-hydroxy-acrylamide] | 0.1 to 1 | 1 to 3 | ≥ 3 | 1 to 3
3 | CN1C(=O)c2cc(/C=C/C(=O)NO)ccc2OC12CCNCC2 [Example 79, (E)-3-{3,4-Dihydro-3-methyl-4-oxo-spiro[2H-(1,3)-benzoxazine-2,4′-piperidin]-6-yl}-N-hydroxy-acrylamide] | 0.1 to 1 | ≥ 3 | ≥ 3 | ≥ 3
4 | O=C(/C=C/c1ccc2c(c1)C(=O)N(Cc1ccccc1)C1(CCN(Cc3ccccc3)CC1)O2)NO [Example 80, (E)-3-{1′-Benzyl-3,4-dihydro-3-benzyl-4-oxo-spiro[2H-(1,3)-benzoxazine-2,4′-piperidin]-6-yl}-N-hydroxy-acrylamide] | 0.1 to 1 | 1 to 3 | 1 to 3 | 1 to 3
5 | CN1CCC2(CC1)Oc1ccc(/C=C/C(=O)NO)cc1C(=O)N2Cc1ccccc1 [Example 81, (E)-3-{1′-Methyl-3,4-dihydro-3-benzyl-4-oxo-spiro[2H-(1,3)-benzoxazine-2,4′-piperidin]-6-yl}-N-hydroxy-acrylamide] | 0.1 to 1 | ≤ 1 | ≤ 1 | ≤ 1
6 | O=C(/C=C/c1ccc2c(c1)C(=O)N(Cc1ccccc1)C1(CCN(Cc3ccc(F)cc3)CC1)O2)NO [Example 83, (E)-3-{1′-(4-Fluoro-benzyl)-3,4-dihydro-3-benzyl-4-oxo-spiro[2H-(1,3)-benzoxazine-2,4′-piperidin]-6-yl}-N-hydroxy-acrylamide] | 0.1 to 1 | 1 to 3 | ≥ 3 | 1 to 3
7 | O=C(/C=C/c1ccc2c(c1)C(=O)N(Cc1ccccc1)C1(CCN(CCc3ccccc3)CC1)O2)NO [Example 84, (E)-3-{1′-(2-Phenyl-ethyl)-3,4-dihydro-3-benzyl-4-oxo-spiro[2H-(1,3)-benzoxazine-2,4′-piperidin]-6-yl}-N-hydroxy-acrylamide] | 0.1 to 1 | 1 to 3 | 1 to 3 | 1 to 3
